This experiment relates to elderly patients suffering from Alzheimer disease or related disorders (ADRD). The experiment in a line: Before-after clinical study: change in global cognitive performance by Mini-Mental State Examination (MMSE). In kind it is in vivo, human. The following applies: for Change in MMSE score, mean ± SD (MMSE score after treatment − MMSE score before treatment): between-visits change, oral treatment; for MMSE score (/30 points), mean ± SD after treatment: first follow-up visit, oral vitamin D3 800-3500 IU per day and/or memantine 5-20 mg per day, mean time between visits 0.6±0.4 years. Here is the method:
Based on a before-after designed study, we compared the change in global cognitive performance using the Mini-Mental State Examination (MMSE) among elderly patients suffering from Alzheimer disease or related disorders (ADRD).
Three different treatments were administered to these patients: • vitamin D3 alone, • memantine alone, • vitamin D3 in combination with memantine.
All patients suffering from ADRD who were prescribed memantine and/or vitamin D3 with no cerebral vasodilatators and no anticholinesterasics (i.e., donepezil, galantamine or rivastigmine) at the University Memory Center of Angers University Hospital, France and who had at least one follow-up visit, were enrolled in this study.
The MMSE score was used to assess global cognitive performance during the study and was completed at baseline (i.e., before the drug prescription) and during the first follow-up visit. MMSE is a well-established measure of cognitive function in elderly people (see for example Folstein M F, Folstein S E, et al., Mini-Mental State: A practical method for grading the cognitive state of patients for the clinician; Journal of Psychiatric Research 1975; 12: 189-198; or Kalafat L, Hugonot-Diener L, Poitrenaud J., Standardisation et étalonnage français du<<Mini Mental State>>version Greco; Neuropsychol Rev 2003; 13: 209-236). It is a brief, practical screening test for cognitive dysfunction composed of five sections (orientation, registration, attention—calculation, recall, and language). […] Scores range from 30 (unimpaired) to 0 (impaired). The change in MMSE score was used to assess the change in cognitive performance after the introduction of the drug(s).
Subjects were prescribed either vitamin D3 alone, memantine alone, or Vitamin D3 in combination with memantine.
Vitamin D3 was administered orally either daily or monthly. Dosage of vitamin D3 ranges between 800 and 3500 IU per day.
Memantine was administered orally every day at once. Dosage ranges from 5 to 20 mg per day.
Age, gender, the MMSE score at baseline assessment as well as the time between two visits expressed in years (corresponding to the duration of treatment) were used as co-variables.
The subjects' baseline characteristics were summarized using means and standard deviations or frequencies and percentages, as appropriate. First, comparisons between subjects separated into three groups corresponding to the three treatments administered (i.e., vitamin D3 alone, memantine alone and Vitamin D3 in combination with memantine) were performed using the Chi-square test or the Kruskal-Wallis test, as appropriate. To address the problem of multiple comparisons, analyses were completed by a post hoc Bonferonni test.
Second, multiple linear regression analyses (i.e., fully adjusted method) were performed to examine the association between the change in MMSE score (dependent variable) and the use of vitamin D3 in combination with memantine (independent variable), after adjustment for clinical characteristics.
Three models were performed: • first, we examined the between-visits change in MMSE score taking as reference group the subjects using vitamin D3 alone; • second, we performed the same analysis taking as reference group the subjects using memantine alone; and • third, taking as reference group the subjects using vitamin D3 or memantine.

As to `C=C1CC[C@H](O)C/C1=C/C=C1\CCC[C@]2(C)[C@@H]([C@H](C)CCCC(C)C)CC[C@@H]12` [V. D3, cholecalciferol], the “Change in MMSE score, mean ± SD (MMSE score after treatment − MMSE score before treatment)” value (shortened to “Change in MMSE score, mean ± SD”) is given as −0.6 ± 3.1 points and the “MMSE score (/30 points), mean ± SD after treatment” value is listed as 17.7 ± 6.5 points. Further, the “points lost in MMSE score on average” value (between visits, printed as a loss) turned out to be 0.6±3.1 points.

For the compound `CC12CC3CC(C)(C1)CC(N)(C3)C2` [M., 3,5-dimethyltricyclo[3.3.1.1]decylamine], the “Change in MMSE score, mean ± SD” value was −0.0 ± 1.8 points and the “MMSE score (/30 points), mean ± SD after treatment” value amounted to 16.1 ± 5.1 points. The “Change in MMSE score, mean ± SD” value (listed as memantine) is 0.0±1.8 points.
